Source: BindingDB's records for PubMed 9023294 (Sanofi Recherche, 1997)

How the values were obtained:
[1] = molecular target: Neurotensin (Cavia porcellus, UniProt P32560)
[2] = molecular target: T1, Neurotensin/neuromedin N (Human, UniProt P30990)
T1 sequence (P30990 whole entry): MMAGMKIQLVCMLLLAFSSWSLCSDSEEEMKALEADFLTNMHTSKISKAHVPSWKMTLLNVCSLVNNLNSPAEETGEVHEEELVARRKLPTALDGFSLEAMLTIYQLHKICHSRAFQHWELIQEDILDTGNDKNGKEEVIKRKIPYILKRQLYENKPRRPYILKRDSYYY

| SMILES | Ki [1] [nM] | Ki [2] [nM] |
| --- | --- | --- |
| COc1cccc(OC)c1-c1cc(C(=O)NC2(C(=O)O)C3CC4CC(C3)CC2C4)nn1-c1ccnc2cc(Cl)ccc12 (stereo not drawn) | 3.9 |  |
| COc1cccc(OC)c1-c1cc(C(=O)NC2(C(=O)O)C3CC4CC(C3)CC2C4)nn1-c1ccc(C(=O)N(C)CCCN(C)C)cc1C(C)C (stereo not drawn) [SR142948A] | 0.17 | 0.28 |
